The values below come from patent US10975063B2, “Compound, and production method thereof, and methods of treatment using the compound” (ABIVAX, priority 2009, dated 2021).

Assay [1] has as its system LMNA aberrant splicing (MutLMNA-luc cell line). The experiment in a line: Luciferase assay for repression of LMNA aberrant splicing in stable 293 MutLMNA-luc cell line (293FLP LMNA LUC cells #8). It is filed as cell-based. The conditions noted are these: 48 hours, compared to control untreated MutLMNA-luc cell line, read-out: Increase of luciferase activity. The source says:
Advantage has been taken of the luciferase system. The luciferase assay is an extremely sensitive and rapid assay. Linear results are seen over at least eight orders of magnitude of enzyme concentration. Moreover, the luciferase assay is well suited for high-throughput applications. To conduct a Mid-throughput screening (MTS) for compounds repressing LMNA aberrant splicing, we have constructed a plasmid in which exon 11, intron 11 and part of exon 12 of LMNA gene were fused with luciferase cDNA (FIG. 2). Both wild type (WtLMNA-luc)(SEQ ID NO: 1) and mutant (MutLMNA-luc)(SEQ ID NO: 2) substrate harbouring exon 11 mutation have been constructed. In these constructs we have generated a single initiation codon in exon 11 such as correct splicing will lead to luciferase expression, while aberrant splicing will skip the initiation codon and thereby prevent luciferase expression. After transfection in HeLa cells, Luciferase assays (FIG. 2B) and RT-PCR (FIG. 2C) indicate that WtLMNA-luc produces predominantly wild type splicing and large amount of luciferase activity, whereas MutLMNA-luc recapitulate the aberrant splicing profile with reduced luciferase expression (FIGS. 2 B and C, compare Wt and Mut). In order to use this system in MTS, we have generated a stable 293 cell lines containing a single integrated copy of luciferase reporter containing LMNA mutation (MutLMNA-luc cell line) using the flp system from INVITROGEN. This system allows us to perform a MTS for compounds able to enhance luciferase activity.
LMNA sequences (1278 bp of exon 11, intron 11 and 46 bp of […]) were PCR-amplified from either control or patient's cells genomic DNA with specific primer PCR fragments were purified with Concert Rapid PCR purification system (Invitrogen) and subcloned at the BamHI and EcoRI restriction sites of the pSppβm3 S1 plasmid containing the βGlobin cassette (Labourier et al., 1999—Recognition of exonic splicing enhancer sequences by the Drosophila splicing repressor RSF1. Nucleic Acids Res. 27, 2377-2386) to give the βGlo3S1LMNAwt and βGlo3S1LMNAmut constructs. The chimeric (3Glo-LMNA sequences were then inserted into the pcDNA3.1D/V5-His-TOPO vector (Invitrogen) to be used in transfection and in vitro splicing experiments. A single initiation codon ATG was kept in exon 11 of LMNA and LMNA sequences described above were fused at their 3′ end to Fyrefly luciferase cDNA (LMNAlucWT) in order that removal of intron 11 generates a transcript that encode a fusion protein harbouring luciferase activity, whereas usage of the cryptic splice site of mutated exon 11 (LMNAlucMut) will remove the initiation codon preventing luciferase expression. Both sequences were cloned in pcDNA3 Flp-In vector (Invitrogen).
A stable 293 cell line containing a single copy of LMNAlucMut minigene was obtained using the Flp-In system from (Invitrogen) according to manufacture procedure. Several clones were obtained and only one clone was used to screen the whole chemical library (293FLP LMNA LUC cells #8).
In a 96 Well Plate sterile, V-shape one put […] of drug compounds at 50 mM and then add 49.5 μl of 10% DMSO.
One pipets […] of drug at 500 μM and adds 200 μL of DMEM+Hygromycin B. At this stage the concentration of drug compound is 10 μM. One shares out 100 μl in a 96 Well Microplate sterile, flat bottom (further called luciferase plate) and 50 μl in other one (further called toxicity plate).
One washes 293FLP LMNA LUC cells once with D-PBS then adds 1 ml trypsin EDTA. Incubation at 37° C. for 2-3 minutes is proceeded. Then one adds 9 ml DMEM (with 10% FCS, P/S).
Cell concentration is brought at 10^5 cells per ml with DMEM+Hygromycin B to have 10^4 cells per 100 μl.
100 μl of suspension cells is added (at 10^4 cells per 100 μl) so final concentration of compounds is […].
Medium of the wells is gently removed then washed once by adding slowly 150 μl of D-PBS 1×. D-PBS is removed. 40 μl of PLB 1× is added and incubated at RT for 30 minutes. […]

The test system of the next assay is HIV-1. Nature of the assay: Inhibition of HIV-1 production (p24 antigen) in infected peripheral blood mononuclear cells (PBMCs). The note with it: for Inhibition of p24 production in HIV infected PBMCs from different donors: tested molecules at 10 μM, p24 after 3 and 6 days of infection, number of donors with inhibition out of donors tested. It counts as cell-based, HIV-1 (AdaM) in PBMCs of healthy donors. The method, then: Within this framework, the peripheral blood mononuclear cells (PBMCs) of healthy donors are isolated by centrifugation on a FICOLL gradient. The cells are then cultivated to a density of 2.5×10^6 cells/ml with RPMI medium supplemented with 1% inactivated human AB serum, then incubated at 37° C., 5% CO2 for an additional hour. The peripheral blood mononuclear cells are then recovered and cultivated for two days in RPMI medium supplemented with 10% fetal calf serum.
A standard experiment using 96 plates to test 30 molecules in triplicates including positive and negative controls, is performed as follows:
50 10^6 Ficoll purified PBMCs (10% DMSO 90% FCS) are washed with RPMI 10% FCS and resuspended in 25 ml of RPMI 10% FCS, glutamax containing 1000 U/ml of IL2 and 5 μg/ml PHA. The cells are then incubated for 3 days at 37° C. before to be washed with 50 ml PBS then with 50 ml RPMI 10% FCS. The cells are resuspended in 100 μl of RPMI 10% FCS containing 100 U/ml IL2 and seeded in 96 wells (1.5 10^5 cells/well). Viral infection is performed with 1 ng of AdaM/well. 100 μl of tested molecules at concentration of 10 μM are added to each well. Virus production is determined by p24 antigen immunosorbent assays after 3 and 6 days of infection (Kit Innogenetics). Typically PBMCs are prepared from several healthy donors (around 11 different donors). Dose response curves were then established with selected compounds to determine IC50.

Each structure is given as a SMILES string.

Regarding `O=[N+]([O-])c1cccnc1Nc1cnc2ccccc2c1` [Compound 106, N-(3-nitropyridin-2-yl)quinolin-3-amine], in assay [1], the fold induction at 5 µM amounted to 2.77. Further, the midpoint of inhibition in the assay with HIV-1 (Human immunodeficiency virus 1, PBMC, p24 production in HIV infected PBMCs, dose response curves), the IC50, lay at 0.5 nM. Moreover, the “Inhibition of p24 production in HIV infected PBMCs from different donors” value (“Inhibition … from different donors” for short) in the assay on HIV-1 was 6 out of 6 donnors.

For the compound `Fc1cccc(Nc2ccc3ccccc3n2)c1` [Compound 86, N-(3-fluorophenyl)quinolin-2-amine], the fold induction at 5 µM in assay [1] stood at 2.77. In addition, in the assay with HIV-1, the “Inhibition … from different donors” value was 3 out of 4 donnors.

Take `Cc1cccc(Nc2cc(C)c3ccccc3n2)n1` [Compound 45, 4-methyl-N-(6-methylpyridin-2-yl)quinolin-2-amine]: the fold induction at 5 µM in assay [1] was determined as 3.08. For the same compound, in the assay with HIV-1, the “Inhibition … from different donors” value is listed as 4 out of 4 donnors.

Turning to `Cc1ccnc(Nc2cnc3ccccc3n2)c1` [Compound 136, N-(4-methylpyridin-2-yl)quinoxalin-2-amine], the fold induction at 5 µM in assay [1] was 5.2. Moreover, the “Inhibition … from different donors” value with HIV-1 was 6 out of 8 donnors.

In the case of `Clc1ccc2nc(Nc3cnccn3)ccc2c1` [Compound 109, 6-chloro-N-(pyrazin-2-yl)quinolin-2-amine], the fold induction at 5 µM in assay [1] turned out to be 2.79. Moreover, the “Inhibition … from different donors” value in the assay with HIV-1 is reported as 8 out of 8 donnors.

Turning to `Cc1cc(OC(F)(F)F)ccc1Nc1ccc2ccccc2n1` [Compound 82, N-[2-methyl-4-(trifluoromethoxy)phenyl]quinolin-2-amine], in assay [1], the fold induction at 5 µM was 3.41. Moreover, the “Inhibition … from different donors” value in the assay with HIV-1 is recorded as 4 out of 4 donnors.
